These results are taken from patent US11407819B2, “Compositions and use of a fibrinogen binding motif present in EFB and COA for therapeutics and vaccines against Staphylococcus aureus” (priority 2013, dated 2022).

“Also recorded” adds a separate entry of the source.

The target of one test is T1, rEfb-N binding to Fg (Homo sapiens, UniProt P02671+P02675+P02679).
T1 construct: full-length human Fibrinogen (diluted in PBS, Enzyme research); purchased Enzyme research; host or cells: Efb probe made in E. coli
T1 sequence (P02671 20-629 limits assumed): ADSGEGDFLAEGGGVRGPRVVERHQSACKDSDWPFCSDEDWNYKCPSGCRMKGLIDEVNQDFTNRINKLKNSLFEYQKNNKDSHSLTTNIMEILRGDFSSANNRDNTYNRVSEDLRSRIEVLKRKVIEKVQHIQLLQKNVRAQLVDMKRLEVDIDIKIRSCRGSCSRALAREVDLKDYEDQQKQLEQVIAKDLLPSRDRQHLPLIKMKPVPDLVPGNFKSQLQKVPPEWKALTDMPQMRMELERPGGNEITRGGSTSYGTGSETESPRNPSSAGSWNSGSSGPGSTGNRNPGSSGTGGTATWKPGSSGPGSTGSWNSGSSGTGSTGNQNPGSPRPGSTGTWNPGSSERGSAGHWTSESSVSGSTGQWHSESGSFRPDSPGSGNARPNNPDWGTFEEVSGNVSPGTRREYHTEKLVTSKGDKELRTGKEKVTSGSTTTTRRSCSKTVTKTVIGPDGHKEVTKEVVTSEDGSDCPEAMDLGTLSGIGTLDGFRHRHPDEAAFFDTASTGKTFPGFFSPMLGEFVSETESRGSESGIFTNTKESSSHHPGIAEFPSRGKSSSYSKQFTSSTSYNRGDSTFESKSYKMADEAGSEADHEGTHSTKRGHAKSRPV
T1 sequence (P02675 31-491): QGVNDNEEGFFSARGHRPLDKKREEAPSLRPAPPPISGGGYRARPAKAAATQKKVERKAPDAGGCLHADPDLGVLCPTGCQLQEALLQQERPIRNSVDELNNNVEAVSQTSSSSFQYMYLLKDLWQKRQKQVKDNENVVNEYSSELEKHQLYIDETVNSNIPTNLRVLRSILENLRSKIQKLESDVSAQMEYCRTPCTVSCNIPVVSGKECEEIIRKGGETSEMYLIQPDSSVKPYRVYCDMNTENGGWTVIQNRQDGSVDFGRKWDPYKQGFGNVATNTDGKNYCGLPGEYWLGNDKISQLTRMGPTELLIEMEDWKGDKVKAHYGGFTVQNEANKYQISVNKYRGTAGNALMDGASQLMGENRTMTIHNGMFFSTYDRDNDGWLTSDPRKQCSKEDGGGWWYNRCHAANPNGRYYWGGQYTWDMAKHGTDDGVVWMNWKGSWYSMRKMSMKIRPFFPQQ
T1 sequence (P02679 27-453): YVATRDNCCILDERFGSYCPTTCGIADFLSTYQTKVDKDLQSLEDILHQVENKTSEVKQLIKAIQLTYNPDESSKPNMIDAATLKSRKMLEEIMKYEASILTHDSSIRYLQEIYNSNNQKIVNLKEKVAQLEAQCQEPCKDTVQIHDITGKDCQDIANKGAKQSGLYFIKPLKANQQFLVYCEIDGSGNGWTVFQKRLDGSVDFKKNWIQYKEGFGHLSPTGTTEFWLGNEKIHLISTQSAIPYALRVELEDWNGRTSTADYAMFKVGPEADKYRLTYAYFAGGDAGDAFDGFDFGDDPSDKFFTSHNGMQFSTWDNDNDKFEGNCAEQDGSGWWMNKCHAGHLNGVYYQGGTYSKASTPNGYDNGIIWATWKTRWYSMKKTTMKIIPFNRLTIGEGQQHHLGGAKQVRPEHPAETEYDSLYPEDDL
The test is described as follows: Competition ELISA, peptide inhibition of rEfb-N (Efb 30-104) binding to Fg. Particulars: increasing concentration of peptides; 2 nM GST fusion protein. An excerpt:
Coa-F contains an Efb like fibrinogen binding motif. FIG. 11A is an image of a ClustalW alignment of amino acid sequence from Efb-O (Efb 68-98) and Coa from Newman strain (col-Newman). Sequence similarity was identified at Coa 474-505. Bold letters denote conserved residues and underlined letters represent similar residues. FIGS. 11B and 11C show a comparison of amino acid sequence of Efb-O with Coa 474-505 (FIG. 11B) and Coa 506-532 (FIG. 11C). Large letters in Efb-O indicate the residues important for Fg binding. The red letters show the identical residues and the yellow letters indicate the similar residues. […] Increasing concentration of Coa peptides was incubated with 2 nM GST fusion proteins in Fg-coated microtiter wells. Closed square, sCoa-O; closed circle, sCoa-RI; closed triangle, sEfb-O.
A peptide was synthesized that corresponds to the Coa-O sequence (sCoa-O) and determined its Fg binding activity in a competition ELISA. Microtiter wells were coated with Fg and binding of the recombinant N-terminal segment of Efb (rEfb-N), that harbors the two Fg binding sites, was quantitated in the presence of increasing concentration of different synthetic peptides.
In the case of peptide inhibition assay, various concentration of Efb or Coa peptides were mixed with a fixed concentration of Coa-GST or Efb-GST fusion proteins (5-10 nM) in TBS and the bound GST fusion proteins were detected through incubation with HRP-conjugated rabbit anti-GST polyclonal antibodies (5000× dilution). All proteins were diluted in TBS containing 1% BSA and 0.05% TWEEN® 20 and the ELISA assays were carried out at room temperature.
In general terms: In an ELISA, binding on a coated surface is turned into a signal by an enzyme label.

The test system of another test is THP-1 cells. Nature of the test: THP-1 cell adherence to immobilized Fg. The class given is cell-based. Conditions: for inhibition of THP-1 adherence to immobilized Fg: M1/70 20 μg/ml, rEfb 0.2 μM, rCoa 0.5 μM, peptides 0.5 μM each. Here is the method: Cell adherence assay using cell lines—A monocytic cell line THP-1 cell stably expressing αMβ2 was maintained in RPMI1640 supplemented with 10% fetal bovine serum, […] L-glutamine, 100 units/ml penicillin and 100 μg/ml streptomycin. Prior to use, cells were harvested by centrifuge, washed and suspended in RPMI 1640/1% human serum albumin. For cell adherence assays, 48-well plates were coated with 200 μl of Fibrinogen (10 μg/ml) overnight at 4° C. followed by 1 hour at 37° C. before blocking with 1% Polyvinylpyrrolidone (PVP 3600 kDa) for 45 minutes at 37° C. Subsequently, the cells were seeded 2×10^5/well in the presence or absence of Coa or Efb recombinant proteins or peptides and incubated at 37° C. for 25 minutes. Non-adherent cells were removed by washing gently three times with PBS/1% BSA. Adherent cells were quantitated with CyQuant kit according to the manufacturer's manual.

As to “sCoa-RI: synthetic peptide, first 27 residues of repeat region, Coa 506-532 (ETNAYNVTTHANGQVSYGARPTYKKPS)”, the “inhibition of rEfb-N binding to Fg” value with rEfb-N binding to Fg is given as “effectively inhibited rEfb-N binding to Fg; also recorded: somewhat more effective inhibitor than sCoa-O”. Moreover, the “inhibition of THP-1 adherence to immobilized Fg” value in the test on THP-1 cells is given as “did not inhibit THP-1 adherence”.
In the case of “sEfb-O: synthetic peptide mimicking the high affinity Fg-binding motif in Efb (Efb 68-98) (KYIKFKHDYNILEFNDGTFEYGARPQFN)”, the “inhibition of rEfb-N binding to Fg” value in the test with rEfb-N binding to Fg is “potently inhibited rEfb-N binding to the Fg surface; also recorded: effectively inhibited rEfb-N binding to Fg”. Besides, in the test on THP-1 cells, the “inhibition of THP-1 adherence to immobilized Fg” value is “did not inhibit THP-1 adherence”. In addition, the “reversal of inhibition of THP-1 adherence elicited by rEfb or rCoa” value in the test with THP-1 cells (peptide 50 μM preincubated with rEfb (0.2 μM) or rCoa (0.2 μM)) is reported as “reverses the inhibitory activities”.
